From patent US6949571B2, “1,2-dihydropyridine compounds, process for preparation of the same and use thereof” (Eisai Co., Ltd., priority 2000, dated 2005)
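Further: primary rat embryonic cortical neurons grown on an astrocyte layer in 96-well plates, used after at least 8 to 10 days in culture, Fura2-AM fluorescence ratio at 340/380 nm excitation.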

These compounds were tested on AMPA receptor. Conditions: Table 1; primary culture of rat embryo cerebral cortex nerve cells, 2 μM AMPA, 1 μM MK-801.
`O=c1c(-c2cccnc2F)cc(-c2ccccn2)cn1-c1cccc(F)c1` [Example 88, 3-(2-Fluoro-3-pyridyl)-5-(2-pyridyl)-1-(3-fluorophenyl)-1,2-dihydropyridin-2-one] showed an IC50 of 0.3 µM.
In the case of `COc1ccc(-c2cc(-c3ccccn3)cn(-c3ccccc3)c2=O)cc1` [Example 70, 3-(4-Methoxyphenyl)-5-(2-pyridyl)-1-phenyl-1,2-dihydropyridin-2-one], the IC50 is reported as 3.1 µM.
`N#Cc1ccccc1-c1cc(-c2ccccc2C#N)c(=O)n(-c2ccccc2)c1` [Example 36, 3-(2-Cyanophenyl)-5-(2-cyanophenyl)-1-phenyl-1,2-dihydropyridin-2-one] was tested, and the IC50 was 1.1 µM.
For `COc1ncc(-c2ccccn2)cc1-c1ccccc1C#N` [Example 5, 3-(2-Cyanophenyl)-5-(2-pyridyl)-2-methoxypyridine], the IC50 was 0.6 µM.
With `COc1ccccc1-c1cc(-c2ccccc2C#N)c(=O)n(-c2ccccc2)c1` [Example 42, 3-(2-Cyanophenyl)-5-(2-methoxyphenyl)-1-phenyl-1,2-dihydropyridin-2-one] the IC50 was 0.2 µM.
In the case of `CS(=O)(=O)NCc1cccc(-n2cc(-c3ccccn3)cc(-c3ccccc3C#N)c2=O)c1` [Example 24, 3-(2-Cyanophenyl)-5-(2-pyridyl)-1-(3-methylsulfonylaminomethylphenyl)-1,2-dihydropyridin-2-one], the IC50 is reported as 0.2 µM.
In the case of `COc1cccc(-n2cc(-c3ccccn3)cc(-c3ccccc3C#N)c2=O)c1` [Example 96, 3-(2-Cyanophenyl)-5-(2-pyridyl)-1-(3-methoxyphenyl)-1,2-dihydropyridin-2-one], the IC50 is reported as 0.06 µM.
`N#Cc1ccccc1-c1cc(-c2ccccn2)c[nH]c1=O` [Example 6, 3-(2-Cyanophenyl)-5-(2-pyridyl)-2(1H)-pyridone] showed an IC50 of 9.3 µM.
For `N#Cc1ccccc1-c1cc(-c2ccccn2)cn(-c2ccc(C=O)cc2)c1=O` [Example 100, 3-(2-Cyanophenyl)-5-(2-pyridyl)-1-(4-formylphenyl)-1,2-dihydropyridin-2-one], the IC50 was 0.4 µM.
Compound `Cc1ccc(-n2cc(-c3ccccn3)cc(-c3ccccc3C#N)c2=O)cc1` [Example 107, 3-(2-Cyanophenyl)-5-(2-pyridyl)-1-(4-tolyl)-1,2-dihydropyridin-2-one] has an IC50 of 0.07 µM.

Same assay, conditions: Table 2; suppression of AMPA-induced calcium influx into nerve cells
Work on `N#Cc1ccccc1-c1cc(-c2cccc(C(N)=O)n2)cn(-c2ccccc2)c1=O` [Example 235, 5-[(6-Aminocarbonyl)pyridin-2-yl]-3-(2-cyanophenyl)-1-phenyl-1,2-dihydropyridin-2-one] yielded an IC50 of 4.4 µM.
In the case of `CC(=O)c1cccc(-n2cc(-c3ccccn3)cc(-c3ccccc3C#N)c2=O)c1` [Example 277, 1-(3-Acetylphenyl)-3-(2-cyanophenyl)-5-(2-pyridyl)-1,2-dihydropyridin-2-one], the IC50 is reported as 0.6 µM.
`N#Cc1ccccc1-c1cc(-c2ccc(O)cn2)cn(-c2ccccc2)c1=O` [Example 163, 3-(2-Cyanophenyl)-5-(5-hydroxypyridin-2-yl)-1-phenyl-1,2-dihydropyridin-2-one] gave an IC50 of 8.2 µM.
In the case of `O=c1c(-c2nc3ccccc3[nH]2)cc(-c2ccccn2)cn1-c1ccccc1` [Example 190, 3-(1H-Benzimidazol-2-yl)-5-(2-pyridyl)-1-phenyl-1,2-dihydropyridin-2-one], the IC50 is reported as 0.6 µM.
For `Cc1nc(-c2ccccc2-c2cc(-c3ccccn3)cn(-c3ccccc3)c2=O)no1` [Example 193, 3-[2-(5-Methyl-1,2,4-oxadiazol-3-yl)phenyl]-1-phenyl-5-(2-pyridyl)-1,2-dihydropyridin-2-one], the IC50 was 0.4 µM.
For `CN(C)CCOc1cccc(-c2cc(-c3ccccn3)cn(-c3ccccc3)c2=O)c1` [Example 247, 3-[3-(Dimethylaminoethoxy)phenyl]-1-phenyl-5-(2-pyridyl)-1,2-dihydropyridin-2-one], the IC50 was 3.6 µM.
For `CN(C)CCOc1cccc(-n2cc(-c3ccccn3)cc(-c3ccccc3Cl)c2=O)c1` [Example 144, 3-(2-Chlorophenyl)-5-(2-pyridyl)-1-(3-dimethylaminoethoxyphenyl)-1,2-dihydropyridin-2-one], the IC50 was 0.01 µM.
In the case of `N#Cc1ccccc1-c1cc(-c2ccncn2)cn(-c2ccccc2)c1=O` [Example 202, 3-(2-Cyanophenyl)-1-phenyl-5-(4-pyrimidinyl)-1,2-dihydropyridin-2-one], the IC50 is reported as 0.7 µM.
`CN(C)CCOc1ccc(-c2cc(-c3ccccn3)cn(-c3ccccc3)c2=O)cc1` [Example 248, 3-[4-(Dimethylaminoethoxy)phenyl]-1-phenyl-5-(2-pyridyl)-1,2-dihydropyridin-2-one] showed an IC50 of 3.4 µM.
In the case of `O=c1c(-c2nccs2)cc(-c2ccccn2)cn1-c1ccccc1` [Example 255, 1-Phenyl-5-(2-pyridyl)-3-(2-thiazoyl)-1,2-dihydropyridin-2-one], the IC50 is reported as 0.5 µM.
In the case of `CCS(=O)(=O)c1ccc(-n2cc(-c3ccccn3)cc(-c3ccccc3C#N)c2=O)cn1` [Example 152, 3-(2-Cyanophenyl)-5-(2-pyridyl)-1-(2-ethylsulfonylpyridin-5-yl)-1,2-dihydropyridin-2-one], the IC50 is reported as 4 µM.
`O=c1c(-c2ccc(O)cc2)cc(-c2ccccn2)cn1-c1ccccc1` [Example 238, 3-(4-Hydroxyphenyl)-1-phenyl-5-(2-pyridyl)-1,2-dihydropyridin-2-one] was tested, and the IC50 was 0.6 µM.
Compound `N#Cc1ccccc1-c1cc(-c2ccccn2)cn(-c2cccc(OCCN3CCOCC3)c2)c1=O` [Example 245, 3-(2-Cyanophenyl)-1-[3-(morpholinoethoxy)phenyl]-5-(2-pyridyl)-1,2-dihydropyridin-2-one] has an IC50 of 1.2 µM.

Same assay, conditions: Table 3; primary culture of rat embryo cerebral cortex nerve cells, 2 μM AMPA, 1 μM MK-801
Work on `N#Cc1sccc1-c1cc(-c2ccccn2)cn(-c2ccccc2)c1=O` [Example 391, 3-(2-Cyanothiophen-3-yl)-5-(2-pyridyl)-1-phenyl-1,2-dihydropyridin-2-one] yielded an IC50 of 0.1 µM.
With `CC(C)(C)OC(=O)N1CCC(Cn2cc(-c3ccccn3)cc(-c3ccccc3C#N)c2=O)CC1` [Example 318, 1-[1-(tert-butoxycarbonyl)piperidin-4-yl]methyl-3-(2-cyanophenyl)-5-(2-pyridyl)-1,2-dihydropyridin-2-one] the IC50 was 3.1 µM.
`O=c1c(-c2nc3cccc4c3n2CCC4)cc(-c2ccccn2)cn1-c1ccccc1` [Example 359, 3-(5,6-Dihydro-4H-imidazo[4,5,1-i,j]quinolin-2-yl)-5-(2-pyridyl)-1-phenyl-1,2-dihydropyridin-2-one] showed an IC50 of 2.3 µM.
`O=c1c(-n2cccc2)cc(-c2ccccn2)cn1-c1ccccc1` [Example 320, 3-(Pyrrol-1-yl)-5-(2-pyridyl)-1-phenyl-1,2-dihydropyridin-2-one] was tested, and the IC50 was 2.3 µM.
`O=c1c(-c2nc3ccccc3n2-c2ccccc2)cc(-c2ccccn2)cn1-c1ccccc1` [Example 360, 3-(1-Phenylbenzimidazol-2-yl)-5-(2-pyridyl)-1-phenyl-1,2-dihydropyridin-2-one] gave an IC50 of 3.1 µM.
In the case of `CCOC(=O)C=Cc1sccc1-c1cc(-c2ccccn2)cn(-c2ccccc2)c1=O` [Example 398, 3-[(2-Ethoxycarbonyl)vinylthiophen-3-yl]-5-(2-pyridyl)-1-phenyl-1,2-dihydropyridin-2-one], the IC50 is reported as 0.2 µM.
`O=c1c(C2C3CC4CC(C3)CC2C4)cc(-c2ccccn2)cn1-c1ccccc1` (stereo not shown) [Example 387, 3-(2-Adamantyl)-5-(2-pyridyl)-1-phenyl-1,2-dihydropyridin-2-one] was tested, and the IC50 was 7 µM.
With `Cc1cccc2[nH]c(-c3cc(-c4ccccc4C#N)c(=O)n(-c4ccccc4)c3)nc12` [Example 352, 3-(2-Cyanophenyl)-5-(4-methyl-1H-benzimidazol-2-yl)-1-phenyl-1,2-dihydropyridin-2-one] the IC50 was 1.6 µM.
